Assay results from patent US20100076089A1, “ANTIMICROBIAL GEL FORMULATIONS” (NovaBay Pharmaceuticals, Inc., priority 2008, published 2010).
“And” between values parts separate entries of the source, which are not always exact repeats. Equal values may be shown once.

Legend:
S. aureus = experiment: Time-kill assay of antimicrobial gel formulations; format: cell-based; conditions: final inoculum 1.5×10^7 CFU/mL, room temperature
Method: Isolated S. aureus colonies were picked into 5 mL Tryptic Soy Broth (TSB) and grown for 4-6 hours at 37° C. Stock titers were determined by drop plate method. A working stock of S. aureus was prepared by dilution of the culture to a final inoculum of 1.5×10^8 colony forming units (CFU) per mL in sterile pH 4.0 saline. 900 μL of each tested formulation was placed in sterile glass tubes. A 0.1 mL aliquot of S. aureus suspension containing 1.5×10^8 CFU/mL was inoculated into the test sample container to give a final inoculum of 1.5×10^7 CFU/mL. The inoculated formulation was immediately mixed for 3 seconds following inoculation using a vortex and incubated at room temperature. A plate count was performed on the inoculated samples after 0, 5, 15, 30 and 60 minutes following inoculation as follows: • 0.1 mL of the inoculated antimicrobial test agent was placed into 0.9 mL of the D/E neutralizing broth • A 0.1 mL aliquot of each sample in D/E broth was drop plated on appropriately labeled agar dishes
All plates were incubated at 37° C. for 24 hours for bacterial growth assessment. At the conclusion of the incubation period the number of colonies present on the plates was counted. The total number of survivors at each time point was calculated by multiplying the CFU count obtained by the dilution factor.

S. aureus 6538 biofilm = experiment: Calgary Biofilm Device (MBEC) assay, absorbance reading; format: cell-based; conditions: 24 hr biofilm, treatment 60 minutes, overnight regrowth in TSB; values greater than 0.1 indicate incomplete biofilm eradication
Method: S. aureus 6538 biofilm was grown in MBEC plates for 24 hr at 35° C. for 24 hr in TSB prior to treatment using the method describe above. The MBEC lid containing pegs coated with biofilm was first rinsed in a plate containing […] of PBS in each well for 1 minute, prior to treatment with a plate containing formulations for 60 minutes total. The lid was neutralized in a plate containing 200 μl D/E Neutralization broth in each well for 1 minute before transferring the lid into a plate containing 150 μl TSB in each well. Plate was incubated overnight at 35° C. Absorbance was read at 650 nm the following day.

S. aureus 29213 = experiment: Radial diffusion assay of antimicrobial gel formulations; format: cell-based; conditions: 100 μl of formulation
Method: Vials containing 0.6% NVC-422 (Drug Control), liquid, pH=5.0; 3% Polyox® WSR 205 (Placebo) Liquid, R.T. pH=5.0; 0.6% NVC-422/3% Polyox® WSR 205, Liquid, R.T., pH=5.0; 0.75% AA-1 (Placebo), 0.6% NVC-422/0.75% AA-1 and 0.23% AA-1 (alternate placebo) were prepared. The first three test articles appeared as clear liquids, while the last three appeared as gels. The samples were tested in the radial diffusion assay against S. aureus 29213. 100 μl of each formulation were tested in duplicate on two plates each (n=4 total).

[1] = Amount of N,N-dichloro-2,2-dimethyltaurine an AA-1 formulation can hold; format: physicochemical
Source text: The formulations may be made by mixing the N-halogenated or N,N-dihalogenated amine compound with the polymer using water. Water/oil emulsions, hydrating agents, wetting agents, surfactants, and the like may also be used. Concentrations of N-halogenated or N,N-dihalogenated amine compound may range from about 0.01% to about 5.0% (by weight). Concentrations of polymer may be from about 0.01% to about 10% (by weight) in water. For example, in certain implementations, the concentration of N-halogenated or N,N-dihalogenated compounds may range from about 0.1% to about 2.0% (by weight). Higher concentrations of polymer may be required to formulate higher concentrations of the N-halogenated or N,N-dihalogenated amine compound. For example, a 1% AA-1 formulation can hold up to about 2% N,N-dichloro-2,2-dimethyltaurine, whereas a 2% AA-1 formulation can hold up to about 3.5% of the same compound. These ratios may differ as different polymers and N-halogenated or N,N-dihalogenated amine compound are combined in a given formulation.

For CC(C)(CS(=O)(=O)O)N(Cl)Cl [0.3% NVC-422 alone, N,N-dichloro-2,2-dimethyltaurine], the “time to complete kill” value (S. aureus) was 1 h.

In the case of CC(C)(CS(=O)(=O)O)N(Cl)Cl [0.6% NVC-422, N,N-dichloro-2,2-dimethyltaurine], the “Ave. Abs at 650 nm” value (S. aureus 6538 biofilm) is reported as 0.48, the “Clearing zone diameters, Sample 1” value (S. aureus 29213; pH 5.0) is reported as 15 mm and the “Clearing zone diameters, Sample 2” value (S. aureus 29213; pH 5.0) is reported as 16 mm. The “Clearing zone diameters, Sample 3” value (S. aureus 29213; pH 5.0) was 16 mm, the “Clearing zone diameters, Sample 4” value (S. aureus 29213; pH 5.0) was 14 mm and the “Clearing zone diameters, Average +/− SD” value (S. aureus 29213; pH 5.0, n=4, pH 5) was 15.3 mm and 15.3 +/− 1.0 mm. The “time to complete kill” value (S. aureus; listed as 0.6% NVC-422 alone) was 0.25 h.

In the case of CC(C)(CS(=O)(=O)O)N(Cl)Cl [NVC-422, N,N-dichloro-2,2-dimethyltaurine], the “amount of compound the formulation can hold” value ([1]; 1% AA-1 formulation) is reported as “up to 2%” and the “amount of compound the formulation can hold” value ([1]; 2% AA-1 formulation) is reported as “up to 3.5%”.
